Results: patent US20160002248A1, “GLS1 INHIBITORS FOR TREATING DISEASE” (Board of Regents, The University of Texas System, priority 2014, published 2016)

What was measured:
[1] = biological target: T1, purified recombinant human GAC (GLS1) (Homo sapiens, UniProt O94925); test: GLS1 Enzymatic Activity Assay (dual-coupled enzymatic assay); assay type: biochemical
T1 sequence (O94925 55-598 isoform O94925-3 limits assumed): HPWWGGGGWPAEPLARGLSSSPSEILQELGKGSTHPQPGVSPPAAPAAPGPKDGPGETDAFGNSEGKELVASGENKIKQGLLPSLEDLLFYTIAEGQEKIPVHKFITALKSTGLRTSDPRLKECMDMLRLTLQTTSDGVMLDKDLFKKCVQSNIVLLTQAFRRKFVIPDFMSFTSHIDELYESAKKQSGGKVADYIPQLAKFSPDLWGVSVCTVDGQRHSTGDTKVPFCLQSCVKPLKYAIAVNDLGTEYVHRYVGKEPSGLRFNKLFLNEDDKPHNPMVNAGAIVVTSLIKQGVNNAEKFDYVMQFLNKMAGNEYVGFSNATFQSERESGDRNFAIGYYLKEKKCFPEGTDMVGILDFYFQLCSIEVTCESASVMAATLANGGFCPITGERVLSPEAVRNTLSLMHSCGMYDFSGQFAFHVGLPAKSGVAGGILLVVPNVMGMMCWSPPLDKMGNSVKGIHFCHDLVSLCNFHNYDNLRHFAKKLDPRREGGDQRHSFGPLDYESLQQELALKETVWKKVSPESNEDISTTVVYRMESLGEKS
How it was run: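 GAC activity measured by coupling glutamate to glutamate oxidase and HRP, generating resorufin from Amplex UltraRed. Enzyme (2 nM) preincubated with 50 mM potassium phosphate 10 min at room temperature, then inhibitor 10 min; 1 mM glutamine substrate, 1% DMSO. Fluorescence 530/590 nm, kinetic or 20-min endpoint; IC50 from four-parameter logistic fit.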

[2] = test system: A549 cells; test: Proliferation Assay (A549 cell viability, Cell Titer Fluor); assay type: cell-based; conditions: Homo sapiens, 72 hours
How it was run: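 1000 A549 cells/well, RPMI 1640/10% dialyzed FBS, 24 h attach; compound 72 h, 0.5% DMSO, 37 °C/5% CO2; Cell Titer Fluor fluorescence; EC50 via 4-parameter logistic.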

Structure (SMILES)	IC50 [1] [µM]	EC50 [2] [µM]
Cc1ccc(CNC(=O)c2cn(CCCCc3cc4cc(-c5ccc(OC(F)(F)F)cc5)[nH]c4nn3)nn2)cn1 [Example 182, N-[(6-methylpyridin-3-yl)methyl]-1-(4-{6-[4-(trifluoromethoxy)phenyl]-7H-pyrrolo[2,3-c]pyridazin-3-yl}butyl)-1H-1,2,3-triazole-4-carboxamide]	< 0.1	0.1 to 0.5
Cc1ccc(CNC(=O)c2cn(CCCCc3cc4cc(-c5ccc(F)cc5F)[nH]c4nn3)nn2)cn1 [Example 183, 1-{4-[6-(2,4-difluorophenyl)-7H-pyrrolo[2,3-c]pyridazin-3-yl]butyl}-N-[(6-methylpyridin-3-yl)methyl]-1H-1,2,3-triazole-4-carboxamide]	< 0.1	0.1 to 0.5
O=C(NCc1cc(C(F)(F)F)ccn1)c1cn(CCCCc2cc3c(-c4ccoc4)c(C4CC4)[nH]c3nn2)nn1 [Example 184, 1-{4-[6-cyclopropyl-5-(furan-3-yl)-7H-pyrrolo[2,3-c]pyridazin-3-yl]butyl}-N-{[4-(trifluoromethyl)pyridin-2-yl]methyl}-1H-1,2,3-triazole-4-carboxamide]	< 0.1	< 0.1
CC(C)COC(=O)N1CC(c2cc3cc(CCCCn4cc(C(=O)NCc5cc(OC(F)(F)F)ccc5F)nn4)nnc3[nH]2)C1 [Example 185, 2-methylpropyl 3-(3-{4-[4-({[2-fluoro-5-(trifluoromethoxy)phenyl]methyl}carbamoyl)-1H-1,2,3-triazol-1-yl]butyl)-7H-pyrrolo[2,3-c]pyridazin-6-yl)azetidine-1-carboxylate]	< 0.1	< 0.1
O=C(NCc1cccc(C(F)(F)F)n1)c1cn(CCCCc2cc3c(-c4ccoc4)c(C4CC4)[nH]c3nn2)nn1 [Example 186, 1-{4-[6-cyclopropyl-5-(furan-3-yl)-7H-pyrrolo[2,3-c]pyridazin-3-yl]butyl}-N-{[6-(trifluoromethyl)pyridin-2-yl]methyl}-1H-1,2,3-triazole-4-carboxamide]	< 0.1	< 0.1
O=C(NCc1ccc(C(F)(F)F)cn1)c1cn(CCCCc2cc3c(-c4ccoc4)c(C4CC4)[nH]c3nn2)nn1 [Example 187, 1-{4-[6-cyclopropyl-5-(furan-3-yl)-7H-pyrrolo[2,3-c]pyridazin-3-yl]butyl}-N-{[5-(trifluoromethyl)pyridin-2-yl]methyl}-1H-1,2,3-triazole-4-carboxamide]	< 0.1	0.1 to 0.5
O=C(NCc1ccc(C(F)(F)F)nc1)c1cn(CCCCc2cc3c(-c4ccoc4)c(C4CC4)[nH]c3nn2)nn1 [Example 188, 1-{4-[6-cyclopropyl-5-(furan-3-yl)-7H-pyrrolo[2,3-c]pyridazin-3-yl]butyl}-N-{[6-(trifluoromethyl)pyridin-3-yl]methyl}-1H-1,2,3-triazole-4-carboxamide]	< 0.1	0.1 to 0.5
O=C(NCc1cncc(C(F)(F)F)c1)c1cn(CCCCc2cc3c(-c4ccoc4)c(C4CC4)[nH]c3nn2)nn1 [Example 189, 1-{4-[6-cyclopropyl-5-(furan-3-yl)-7H-pyrrolo[2,3-c]pyridazin-3-yl]butyl}-N-{[5-(trifluoromethyl)pyridin-3-yl]methyl}-1H-1,2,3-triazole-4-carboxamide]	< 0.1	< 0.1
Cc1ccc(CNC(=O)c2cn(CCCCc3cc4cc(-c5ccccc5F)[nH]c4nn3)nn2)cn1 [Example 190, 1-{4-[6-(2-fluorophenyl)-7H-pyrrolo[2,3-c]pyridazin-3-yl]butyl}-N-[(6-methylpyridin-3-yl)methyl]-1H-1,2,3-triazole-4-carboxamide]	< 0.1	< 0.1
O=C(NCc1cc(C(F)(F)F)ccn1)c1cn(CCCCc2cc3cc(-c4ccccc4F)[nH]c3nn2)nn1 [Example 191]	< 0.1	0.1 to 0.5
